The source of these data is patent US8791139B2, “Anthranilic diamide derivatives” (Bayer Cropscience AG, priority 2010, dated 2014).

Where two headings read alike, the source gives them in different places.

Data set [1] deals with caterpillars of the armyworm (Spodoptera frugiperda). As to the kind of experiment: Spodoptera frugiperda test (SPODFR spray treatment). It counts as in vivo. The settings on record: 168 h; for inhibition at 100 g/ha: 7 d, comparison with prior art. As for the experimental part:
After 7 days, the effect in % is determined.

A short description of data set [2]: logP by HPLC on reversed-phase columns (C18), EEC Directive 79/831 Annex V.A8. It counts as physicochemical. Here is the method:
The logP values reported in the table above and in the Preparation Examples were determined in accordance with EEC Directive 79/831 Annex V.A8 by HPLC (High Performance Liquid Chromatography) on reversed-phase columns (C18), with the following methods:
The LC-MS determination in the acidic range is carried out at pH 2.7 using the mobile phases 0.1% aqueous formic acid and acetonitrile (contains 0.1% formic acid), linear gradient from 10% acetonitrile to 95% acetonitrile
Calibration was carried out using unbranched alkan-2-ones (having from 3 to 16 carbon atoms) with known logP values (the logP values were determined by the retention times using linear interpolation between two successive alkanones).

The subject of data set [3] is larvae of the mustard beetle (Phaedon cochleariae). The experiment in a line: Phaedon test (PHAECO spray treatment). The settings on record: 168 h; for pest or weed control at 100 g/ha / pest or weed control at 500 g/ha: read-out: activity (beetle larvae killed); for inhibition at 100 g/ha: read-out: % Activity, PHAECO.
For another data set, the system named is Lucilia cuprina larvae. The experiment in a line: Lucilia cuprina test (LUCICU). It counts as in vivo. Conditions: application rate 100 ppm, after 48 h. The source says: (§1) Solvent: dimethyl sulphoxide
Vessels containing horse meat treated with the active compound preparation of the desired concentration are populated with about 20 Lucilia cuprina larvae.

Data set [4] relates to green peach aphid (Myzus persicae). The experiment in a line: Myzus test (MYZUPE spray treatment). It counts as in vivo. Conditions: application rate 100 g/ha, after 6 days, Chinese cabbage leaf discs.
Another data set deals with Boophilus microplus. As to the kind of experiment: Boophilus microplus test (BOOPMI injection). The data set is classed as in vivo. Conditions: application rate 20 μg/animal, injection into abdomen, after 7 days. As for the experimental part:
as §1
The active compound solution is injected into the abdomen (Boophilus microplus), and the animals are transferred into dishes and stored in a climate-controlled room.
The activity is assessed by […] of fertile eggs. 100% means that none of the ticks has laid any fertile eggs.

[5] abbreviates: read-out: activity (caterpillars killed).

Regarding `CNC(=O)c1cc(Cl)cc(C)c1NC(=O)c1cc(C#Cc2ccc(OC(F)(F)F)cc2)nn1-c1ncccc1Cl` [Example 10], the pest or weed control at 100 g/ha in data set [1] (setting [5]) and in data set [3] was 100% in each case. This compound also gave a chromatographic logP in data set [2] (pH 2.7, log P) of 4.29.

On to `Cc1cc(Cl)cc(C(=O)NC(C)C)c1NC(=O)c1cc(C#Cc2ccc(OC(F)(F)F)cc2)nn1-c1ncccc1Cl` [Example 11], for which the pest or weed control at 100 g/ha in data set [1] (setting [5]) and in data set [3] was 100% in each case. This compound had a chromatographic logP in data set [2] (pH 2.7, log P) of 4.79. Further, in the data set on Lucilia cuprina larvae, the “efficacy (kill of larvae)” value amounted to 90%.

On to `Cc1cc(C#N)cc(C(N)=O)c1NC(=O)c1cc(C#Cc2ccc(OC(F)(F)F)cc2)nn1-c1ncccc1Cl` [Example 12], for which the pest or weed control at 100 g/ha in data set [1] (setting [5]) came out at 100%. The same compound registered a chromatographic logP in data set [2] (pH 2.7, log P) of 3.58. The “efficacy (kill of larvae)” value in the data set on Lucilia cuprina larvae came to 90%.

Consider `Cc1cc(C#N)cc(C(=O)NC(C)(C)C)c1NC(=O)c1cc(C(=O)c2nc(C(F)(F)F)cs2)nn1-c1ncccc1Cl` [Example 14], for which the pest or weed control at 100 g/ha in data set [1] (setting [5]) and in data set [3] was 100% each time. This compound registered a chromatographic logP in data set [2] (pH 2.7, log P) of 3.57.

For `CNC(=O)c1cc(C#N)cc(C)c1NC(=O)c1cc(C(=O)Cn2nnc(C(F)(F)F)n2)nn1-c1ncccc1Cl` [Example 15], the pest or weed control at 20 g/ha in data set [1] (setting [5]) came to 100%. Moreover, the chromatographic logP in data set [2] (pH 2.7, log P) was 2.89. In data set [4], the “activity (aphids killed)” value was 90%. The “efficacy (kill of larvae)” value in the data set on Lucilia cuprina larvae was found to be 100%. For the same compound, in the data set with Boophilus microplus, the “efficacy (no fertile eggs laid)” value stood at 100%. Further, in data set [3], the pest or weed control at 100 g/ha amounted to 100%.

In the case of `CCOc1ccc(C(=O)c2cc(C(=O)Nc3c(C)cc(C#N)cc3C(=O)NC)n(-c3ncccc3Cl)n2)cn1` [Example 17], the pest or weed control at 100 g/ha in data set [1] (setting [5]) and in data set [3] was 100% each time. In data set [2] (pH 2.7, log P), the chromatographic logP was found to be 2.99.

As to `CNC(=O)c1cc(C#N)cc(C)c1NC(=O)c1cc(C(=O)c2ccc(C(F)(F)F)nc2)nn1-c1ncccc1Cl` [Example 18], the inhibition at 100 g/ha in data set [1] came to 100%. Also, the chromatographic logP in data set [2] (pH 2.7, log P) stood at 3.01. In addition, in data set [3], the inhibition at 100 g/ha was found to be 100% and the pest or weed control at 100 g/ha is 100%.

As to `Cc1cc(C#N)cc(C(=O)NC(C)(C)C)c1NC(=O)c1cc(C(=O)c2ccc(C(F)(F)F)nc2)nn1-c1ncccc1Cl` [Example 19], the pest or weed control at 500 g/ha in data set [1] (setting [5]) and in data set [3] was 100% throughout. Further, the chromatographic logP in data set [2] (pH 2.7, log P) came out at 3.85.

In the case of `CNC(=O)c1cc(C#N)cc(C)c1NC(=O)c1cc(C(=O)c2nc(C(F)(F)F)cs2)nn1-c1ncccc1Cl` [Example 20], the pest or weed control at 500 g/ha in data set [1] (setting [5]) and in data set [3] was 100% in each case. The same compound displayed a chromatographic logP in data set [2] (pH 2.7, log P) of 2.77.

For `Cc1cc(C#N)cc(C(=O)NC(C)C)c1NC(=O)c1cc(C(=O)c2nc(C(F)(F)F)cs2)nn1-c1ncccc1Cl` [Example 21], the pest or weed control at 100 g/ha in data set [1] (setting [5]) and in data set [3] was 100% each time. The chromatographic logP in data set [2] (pH 2.7, log P) was determined as 3.24. Further, the “activity (aphids killed)” value in data set [4] is reported as 90%. Moreover, the “efficacy (kill of larvae)” value in the data set on Lucilia cuprina larvae is given as 100%.

As for `CNC(=O)c1cc(Cl)cc(C)c1NC(=O)c1cc(N2CCN(c3cc(C(F)(F)F)cc(C(F)(F)F)c3)C2=O)nn1-c1ncccc1Cl` [Example 22], the pest or weed control at 100 g/ha came out at 100% in data set [1] (application rate 100 g/ha, after 7 days, read-out: activity (caterpillars killed)) and 100% in data set [3]. Besides, in data set [2] (reversed-phase HPLC column (C18), pH 2.7, HPLC reversed-phase C18, acidic range pH 2.7, 0.1% aqueous formic acid/acetonitrile, table of compounds of formula (I), read-out: log P), the chromatographic logP was 4.43. The “efficacy (kill of larvae)” value in the data set on Lucilia cuprina larvae turned out to be 100%. Besides, the “efficacy (no fertile eggs laid)” value with Boophilus microplus is 100%.

Consider `CNC(=O)c1cc(Cl)cc(C)c1NC(=O)c1cc(CN(C=O)c2ccccc2NS(C)(=O)=O)nn1-c1ncccc1Cl` [Example 32], for which the chromatographic logP in data set [2] (pH 2.7, log P) turned out to be 2.09. For the same compound, in data set [4], the “activity (aphids killed)” value turned out to be 80%.

For `CNC(=O)c1cc(Cl)cc(C)c1NC(=O)c1cc(CN(C=O)c2ccc(Cl)cc2NS(C)(=O)=O)nn1-c1ncccc1Cl` [Example 33], the pest or weed control at 100 g/ha in data set [1] (setting [5]) came out at 100%. The compound also displayed a chromatographic logP in data set [2] (pH 2.7, log P) of 2.49. Besides, the “activity (aphids killed)” value in data set [4] is 90%.

Consider `CNC(=O)c1cc(C#N)cc(C)c1NC(=O)c1cc(C(O)Cn2nnc(C(F)(F)F)n2)nn1-c1ncccc1Cl` (centres unmarked) [Example 63], for which the pest or weed control at 100 g/ha in data set [1] (setting [5]) is 100%. The “log P” value in data set [2] (pH 2.7) worked out at 2.27. Besides, the chromatographic logP in data set [2] (pH 2.7, log P) was 2.01. The “activity (aphids killed)” value in data set [4] is 80%. Also, the “efficacy (no fertile eggs laid)” value with Boophilus microplus was 100%.

Turning to `CNC(=O)c1cc(C#N)cc(C)c1NC(=O)c1cc(/C=C/n2nnc(C(F)(F)F)n2)nn1-c1ncccc1Cl` [Example 64], the pest or weed control at 100 g/ha in data set [1] (setting [5]) and in data set [3] was 100% each time. Moreover, the chromatographic logP in data set [2] (pH 2.7, log P) is 3.17.

As to `Cc1cc(C#N)cc(C(=O)NC(C)C)c1NC(=O)c1cc(Nc2ccc(C(F)(F)F)cn2)nn1-c1ncccc1Cl` [Example 67], the pest or weed control at 100 g/ha in data set [1] (setting [5]) and in data set [3] was 100% throughout. The chromatographic logP in data set [2] (pH 2.7, log P) came out at 3.31.

As for `CNC(=O)c1cc(C#N)cc(C)c1NC(=O)c1cc(CN2CC(C(F)(F)F)C(c3ccc(Cl)cc3)=N2)nn1-c1ncccc1Cl` (centres unmarked) [Example 68], the pest or weed control at 100 g/ha in data set [1] (setting [5]) and in data set [3] was 100% each time. This compound displayed a chromatographic logP in data set [2] (pH 2.7, log P) of 3.66.

As to `CNC(=O)c1cc(C#N)cc(C)c1NC(=O)c1cc(Nc2cc(C(F)(F)F)c(C(F)(F)F)cn2)nn1-c1ncccc1Cl` [Example 71], the pest or weed control at 100 g/ha in data set [1] (setting [5]) and in data set [3] was 100% throughout. The same compound yielded a chromatographic logP in data set [2] (pH 2.7, log P) of 3.5.

`Cc1cc(C#N)cc(C(=O)NC(C)C)c1NC(=O)c1cc(Nc2cc(C(F)(F)F)cc(C(F)(F)F)c2)nn1-c1ncccc1Cl` [Example 73]: the pest or weed control at 100 g/ha in data set [1] (setting [5]) and in data set [3] was 100% in each case.

For the compound `Cc1cc(C#N)cc(C(=O)NC(C)C)c1NC(=O)c1cc(Nc2ccc(C(F)(F)F)cc2)nn1-c1ncccc1Cl` [Example 74], the pest or weed control at 100 g/ha in data set [1] (setting [5]) and in data set [3] was 100% throughout. Also, the chromatographic logP in data set [2] (pH 2.7, log P) worked out at 3.7.

As for `Cc1cc(C#N)cc(C(=O)NC(C)C)c1NC(=O)c1cc(Oc2ccc(C(F)(F)F)cn2)nn1-c1ncccc1Cl` [Example 76], the pest or weed control at 100 g/ha in data set [1] (setting [5]) and in data set [3] was 100% in each case. Moreover, the chromatographic logP in data set [2] (pH 2.7, log P) was found to be 3.4.

For `CNC(=O)c1cc(C#N)cc(C)c1NC(=O)c1cc(Oc2ccc(C(F)(F)F)cn2)nn1-c1ncccc1Cl` [Example 77], the pest or weed control at 100 g/ha in data set [1] (setting [5]) and in data set [3] was 100% each time. Further, the chromatographic logP in data set [2] (pH 2.7, log P) was 2.89.

Consider `CNC(=O)c1cc(C#N)cc(C)c1NC(=O)c1cc(CSc2ccc(C(F)(F)F)cn2)nn1-c1ncccc1Cl` [No. 1 known WO 2007/144100, reference compound], for which the inhibition at 100 g/ha in data set [1] and in data set [3] was 0% throughout.

Broadly, the log P is the decadic logarithm of the partition coefficient of the neutral form, usually between octanol and water. High values mean higher lipophilicity, low ones lower lipophilicity.
